Reference: patent US20030166645A1, “Novel nitrofuran-containing heterocyclic compounds and uses thereof” (priority 2001, published 2003)
In brackets after ≈: the same amount, converted by molar mass. Like-named read-outs stand apart in the source and are kept apart here.

Legend:
[1] = system: S aureus; assay: Microdilution antimicrobial susceptibility test (MIC); assay type: cell-based; settings: broth microdilution, 18-24 h, MIC = 90% inhibition of growth; for MIC: read-out: MIC S aureus MIC2
[2] = system: Clostridium perfringens; assay type: cell-based; settings: disk 200 μg, anaerobic, 24-48 h
[3] = system: S pneumoniae; assay: Microdilution antimicrobial susceptibility test (MIC); assay type: cell-based; settings: broth microdilution, 18-24 h, CO2-enriched atmosphere, MIC = 90% inhibition of growth; for MIC: read-out: MIC S pneumoniae MIC6
[4] = system: H influenzae; assay: as above; assay type: cell-based; settings: broth microdilution, 18-24 h, MIC = 90% inhibition of growth; for MIC: read-out: MIC H influenzae MIC4
[5] = system: E. coli; assay: Systemic bacterial infection model, mice infected with E. coli
[6] = system: S. aureus; assay: Systemic bacterial infection model, mice infected with S. aureus
[7] = system: Bacteroides thetaiotaomicron; assay type: cell-based; settings: agar dilution, anaerobic, 48 h
[8] = system: P aeruginosa; assay: Microdilution antimicrobial susceptibility test (MIC); assay type: cell-based; settings: broth microdilution, 18-24 h, MIC = 90% inhibition of growth; for MIC: read-out: MIC P aeruginosa MIC2
[9] = system: Bacteroides fragilis; assay type: cell-based
[10] = system: M. catarrhalis; assay: Microdilution antimicrobial susceptibility test (MIC); assay type: cell-based; settings: broth microdilution, 18-24 h, MIC = 90% inhibition of growth; for MIC: Moraxella catarrhalis, read-out: MIC M. catarrhalis MIC2
[11] = system: S cerevisiae; assay: as above; assay type: cell-based; settings: broth microdilution, 18-24 h, MIC = 90% inhibition of growth; for MIC: read-out: MIC S cerevisiae MIC7
[12] = system: Bacteroides vulgatus; assay: Antimicrobial agar dilution test of anaerobic bacteria (MIC); assay type: cell-based; settings: 48 h
[13] = system: Bacteroides fragilis; assay: as above; assay type: cell-based; settings: 48 h
[14] = system: E faecalis; assay: Microdilution antimicrobial susceptibility test (MIC); assay type: cell-based; settings: broth microdilution, 18-24 h, MIC = 90% inhibition of growth; for MIC: read-out: MIC E faecalis MIC2
[15] = system: Peptostreptococcus sp; assay type: cell-based
[16] = system: E coli; assay: Microdilution antimicrobial susceptibility test (MIC); assay type: cell-based; settings: broth microdilution, 18-24 h, MIC = 90% inhibition of growth; for MIC: read-out: MIC E coli MIC2
[17] = system: E coli (ImpA); assay: as above; assay type: cell-based; settings: broth microdilution, 18-24 h, MIC = 90% inhibition of growth; for MIC: read-out: MIC E coli (ImpA) MIC9
Description: Microdilution Antimicrobial Susceptibility Test Assay
Stock solutions of tested compounds were prepared in N,N-dimethylformamide (DMF) at a concentration of 5 mg/mL. Working solutions of the tested compounds were then prepared from the stock solutions, in Mueller-Hinton broth (MHB) with a starting concentration of 64 μg/mL.
Bacterial inocula were prepared from overnight culture (i.e., one fresh colony from agar plate in 5 ml MHB; H. influenzae was grown in MHB with the addition of yeast extract, haematin, and NAD), centrifuged 2×5 min/3000 rpm (for S. pneumoniae and H. influenzae, 2×10 min/3000 rpm), and dispensed in 5 ml of fresh MHB each time, such that the bacterial suspension is diluted to obtain 100 colony forming units (cfu) in a microplate well (100 μl total volume).
Microplate wells were filled with two-fold dilutions of test compound (50 Al), starting with 64 μg/ml. Wells were then filled with 50 μl of bacterial inoculum (final volume: 100 μl/well). The plates were incubated at 37° C. for 18-24 hours (S. pneumoniae was grown in a CO2-enriched atmosphere).

[18] = system: Clostridium sp.; assay type: cell-based; settings: disk 200 μg, anaerobic, 24-48 h
[19] = Clostridium perfringens (fresh wound isolate)
[20] = Clostridium perfringens, diameter includes disk
[21] = Study #3, 50 mg/kg IP QD × 3, 6 days observation
[22] = Study #3, 75 mg/kg IP QD × 3, 6 days observation
[23] = Study #3, 100 mg/kg IP QD × 3, 6 days observation
[24] = Study #2, 25 mg/kg IP QD × 3, 6 days observation
[25] = Study #2, 50 mg/kg IP QD × 3, 6 days observation

| SMILES | MIC [1] [µg/mL] | MIC [3] [µg/mL] | MIC [4] [µg/mL] | MIC Bacteroides thetaiotaomicron [7] [µg/mL] | MIC [10] [µg/mL] | MIC [11] [µg/mL] | MIC Bacteroides vulgatus [12] [µg/mL] | MIC Bacteroides fragilis ([13]; first B. fragilis column) [µg/mL] | MIC Bacteroides fragilis ([13]; second B. fragilis column) [µg/mL] | MIC Bacteroides fragilis ([13]; third B. fragilis column) [µg/mL] | MIC [14] [µg/mL] | MIC [16] [µg/mL] | other results |
| --- | --- | --- | --- | --- | --- | --- | --- | --- | --- | --- | --- | --- | --- |
| O=C1CN(/N=C/c2ccc([N+](=O)[O-])o2)C(=O)N1 [Nitrofurantoin, reference compound] | 16 (≈ 67.2 µM) | 2 (≈ 8.4 µM) | 4 (≈ 16.8 µM) | 2 (≈ 8.4 µM) | 2 (≈ 8.4 µM) | > 64 | < 0.125 | 2 (≈ 8.4 µM) | 2 (≈ 8.4 µM) | 2 (≈ 8.4 µM) | 4 (≈ 16.8 µM) | 8 (≈ 33.6 µM) | Inhibition zones [2, 19]: 21 mm; Inhibition zones [2, 20]: >25 mm**; Survival (%) [5, 21]: 0%; Survival (%) [5, 22]: 20%; Survival (%) [5, 23]: 0%; Survival (%) [6, 24]: 50%; Survival (%) [6, 25]: 50%; MIC [8]: > 64 µg/mL; Inhibition zones [9]: >25 mm**; Inhibition zones [15]: 12 mm** |
| Cn1c(-c2ccc([N+](=O)[O-])o2)nnc1S(=O)(=O)O [Compound 107, 5-[2-(5-Nitro)furyl]-4-methyl-4H-1,2,4-triazole-3-sulfonic Acid] | 16 (≈ 58.3 µM) | 32 (≈ 117 µM) | 16 (≈ 58.3 µM) | – | 1 (≈ 3.65 µM) | 64 (≈ 233 µM) | – | – | – | – | > 64 | 2 (≈ 7.29 µM) | MIC [17]: 4 µg/mL (≈ 14.6 µM); Survival (%) ([5]; Study #4, 50 mg/kg IP QD × 3, 6 days observation): 70%; Survival (%) ([5]; Study #4, 75 mg/kg IP QD × 3, 6 days observation): 90%; MIC [8]: > 64 µg/mL |
| CC[C@H]1OC(=O)[C@H](C)[C@@H](O[C@H]2C[C@@](C)(OC)[C@@H](O)[C@H](C)O2)[C@H](C)[C@@H](O[C@@H]2O[C@H](C)C[C@H](N(C)C)[C@H]2O)[C@](C)(O)C[C@@H](C)CN(C)[C@H](C)[C@@H](O)[C@]1(C)O [Azithromycin] | – | – | – | 4 (≈ 5.34 µM) | – | – | 1 (≈ 1.34 µM) | 4 (≈ 5.34 µM) | 4 (≈ 5.34 µM) | 4 (≈ 5.34 µM) | – | – | – |
| Cn1c(S)nnc1-c1ccc([N+](=O)[O-])o1 [Compound 122, 5-[2-(5-Nitro)furyl]-4-methyl-4H-1,2,4-triazole-3-thiol] | 2 (≈ 8.84 µM) | 4 (≈ 17.7 µM) | 8 (≈ 35.4 µM) | < 0.125 | < 0.12 | 32 (≈ 141 µM) | < 0.125 | < 0.125 | < 0.125 | < 0.125 | 2 (≈ 8.84 µM) | 4 (≈ 17.7 µM) | Inhibition zones [2, 19]: 30 mm; Inhibition zones [2, 20]: 36 mm*; MIC [17]: 0.25 µg/mL (≈ 1.11 µM); Survival (%) ([5]; Study #3, 25 mg/kg IP QD × 3, 6 days observation): 0%; Survival (%) [5, 21]: 60%; Survival (%) [5, 22]: 20%; Survival (%) [5, 23]: 0%; Survival (%) [6, 24]: 0%; Survival (%) [6, 25]: 30%; Survival (%) ([6]; Study #2, 75 mg/kg IP QD × 3, 6 days observation): 10%; Survival (%) ([6]; Study #2, 100 mg/kg IP QD × 3, 6 days observation): 0%; Inhibition zones ([9]; Bacteroides fragilis, disk 200 μg, anaerobic, 24-48 h): 41 mm; Inhibition zones ([18]; Clostridium sp. (first listed strain)): 20 mm; Inhibition zones ([18]; Clostridium sp. (second listed strain)): 40 mm; Inhibition zones ([15]; Peptostreptococcus sp (fresh abdominal aspirate), disk 200 μg, anaerobic, 24-48 h): 15 mm |
| CNS(=O)(=O)c1nnc(-c2ccc([N+](=O)[O-])o2)n1C [Compound 106, 5-[2-(5-Nitro)furyl]-4-methyl-4H-1,2,4-triazole-3-methyl Sulfonamide] | > 64 | 64 (≈ 223 µM) | 32 (≈ 111 µM) | – | 2 (≈ 6.96 µM) | 64 (≈ 223 µM) | – | – | – | – | > 64 | 8 (≈ 27.8 µM) | MIC [17]: 4 µg/mL (≈ 13.9 µM); MIC [8]: > 64 µg/mL |
| O=[N+]([O-])c1ccc(-c2nnc(S(=O)(=O)O)n2-c2ccc(Cl)cc2)o1 [Compound 132] | – | – | – | – | – | – | – | – | – | – | – | – | MIC S aureus MIC2 [1]: 32 µg/mL (≈ 86.3 µM); MIC S pneumoniae MIC6 [3]: 32 µg/mL (≈ 86.3 µM); MIC H influenzae MIC4 [4]: 8 µg/mL (≈ 21.6 µM); MIC E coli (ImpA) MIC9 [17]: 16 µg/mL (≈ 43.2 µM); MIC P aeruginosa MIC2 [8]: >64 µg/mL; MIC M. catarrhalis MIC2 [10]: 4 µg/mL (≈ 10.8 µM); MIC S cerevisiae MIC7 [11]: 64 µg/mL (≈ 173 µM); MIC E faecalis MIC2 [14]: >64 µg/mL; MIC E coli MIC2 [16]: >64 µg/mL |
| Cn1c(-c2ccc([N+](=O)[O-])o2)nnc1S(=O)(=O)Nc1ccccc1 [Compound 123] | – | – | – | – | – | – | – | – | – | – | – | – | MIC S aureus MIC2 [1]: 64 µg/mL (≈ 183 µM); MIC S pneumoniae MIC6 [3]: 8 µg/mL (≈ 22.9 µM); MIC H influenzae MIC4 [4]: 16 µg/mL (≈ 45.8 µM); MIC E coli (ImpA) MIC9 [17]: 16 µg/mL (≈ 45.8 µM); MIC P aeruginosa MIC2 [8]: >64 µg/mL; MIC M. catarrhalis MIC2 [10]: 1 µg/mL (≈ 2.86 µM); MIC S cerevisiae MIC7 [11]: >64 µg/mL; MIC E faecalis MIC2 [14]: 64 µg/mL (≈ 183 µM); MIC E coli MIC2 [16]: >64 µg/mL |
| CCN1CCN(C(=O)N[C@@H](C(=O)N[C@@H]2C(=O)N3[C@@H]2SC(C)(C)[C@@H]3C(=O)O)c2ccccc2)C(=O)C1=O [Piperacillin] | – | – | – | 16 (≈ 30.9 µM) | – | – | 128 (≈ 247 µM) | 2 (≈ 3.86 µM) | 16 (≈ 30.9 µM) | 2 (≈ 3.86 µM) | – | – | – |
| O=[N+]([O-])c1ccc(-c2nnc(S)n2-c2ccc(Oc3ccccc3)cc2)o1 [Compound 143] | – | – | – | – | – | – | – | – | – | – | – | – | MIC S aureus MIC2 [1]: 0.25 µg/mL (≈ 0.657 µM); MIC S pneumoniae MIC6 [3]: 0.5 µg/mL (≈ 1.31 µM); MIC H influenzae MIC4 [4]: >64 µg/mL; MIC E coli (ImpA) MIC9 [17]: <0.12 µg/mL; MIC P aeruginosa MIC2 [8]: >64 µg/mL; MIC M. catarrhalis MIC2 [10]: <0.12 µg/mL; MIC S cerevisiae MIC7 [11]: >64 µg/mL; MIC E faecalis MIC2 [14]: 1 µg/mL (≈ 2.63 µM); MIC E coli MIC2 [16]: >64 µg/mL |
| CCC[C@@H]1C[C@@H](C(=O)N[C@@H]([C@H]2O[C@H](SC)[C@H](O)[C@@H](O)[C@H]2O)[C@H](C)Cl)N(C)C1 [Clindamycin] | – | – | – | – | – | – | < 0.125 | 1 (≈ 2.35 µM) | 1 (≈ 2.35 µM) | 1 (≈ 2.35 µM) | – | – | – |
| C[C@@H](O)[C@H]1C(=O)N2C(C(=O)O)=C(SCCN=CN)C[C@H]12 [Imipenem] | – | – | – | < 0.125 | – | – | < 0.125 | < 0.125 | < 0.125 | < 0.125 | – | – | – |
| O=C(N[C@H](CO)[C@H](O)c1ccc([N+](=O)[O-])cc1)C(Cl)Cl [Chloramphenicol] | – | – | – | 4 (≈ 12.4 µM) | – | – | < 0.125 | 4 (≈ 12.4 µM) | 4 (≈ 12.4 µM) | 4 (≈ 12.4 µM) | – | – | – |
| O=[N+]([O-])c1ccc(-c2nnc(S)n2Cc2ccco2)o1 [Compound 125] | – | – | – | – | – | – | – | – | – | – | – | – | MIC S aureus MIC2 [1]: 8 µg/mL (≈ 27.4 µM); MIC S pneumoniae MIC6 [3]: 8 µg/mL (≈ 27.4 µM); MIC H influenzae MIC4 [4]: 4 µg/mL (≈ 13.7 µM); MIC E coli (ImpA) MIC9 [17]: 4 µg/mL (≈ 13.7 µM); MIC P aeruginosa MIC2 [8]: >64 µg/mL; MIC M. catarrhalis MIC2 [10]: 0.5 µg/mL (≈ 1.71 µM); MIC S cerevisiae MIC7 [11]: >64 µg/mL; MIC E faecalis MIC2 [14]: 64 µg/mL (≈ 219 µM); MIC E coli MIC2 [16]: >64 µg/mL |
| COc1cc(Cc2cnc(N)nc2N)cc(OC)c1OC [Trimethoprim, reference compound] | 2 (≈ 6.89 µM) | 8 (≈ 27.6 µM) | < 0.12 | – | 32 (≈ 110 µM) | > 64 | – | – | – | – | < 0.12 | 0.25 (≈ 0.861 µM) | MIC [17]: < 0.12 µg/mL; MIC [8]: > 64 µg/mL |
